Patent US20050150764A1 (priority 2001, published 2005)
Read-outs that look alike come from different tables or passages of the source.

Assays:
logP (pH 2) = details: for logP (pH 2): intermediates of formula (VIIa), Table 6
[1] = tested on: larvae of the mustard beetle (Phaedon cochleariae); experiment: Phaedon larvae test (Example B); format: in vivo; details: 1000 ppm, after 7 days, cabbage leaves dipped
Experimental: (§1) Phaedon larvae Test [table] To produce a suitable preparation of active compound, 1 part by weight of active compound is mixed with the stated amounts of solvent and emulsifier, and the concentrate is diluted with emulsifier-containing water to the desired concentration. Cabbage leaves (Brassica oleracea) are treated by being dipped into the preparation of active compound at the desired concentration and are populated with larvae of the mustard beetle (Phaedon cochleariae) while the leaves are still moist. After the desired period of time, the kill in % is determined. 100% means that all of the beetle larvae have been killed: 0% denotes that no beetle larvae have been killed.

[2] = tested on: adult Musca domestica, strain: Reichswald (OP, SP, carbamate resistant); experiment: Test with flies (Musca domestica) (Example H); format: in vivo
Experimental: Test with Flies (Musca domestica)
(§2) 20 mg of active substance are dissolved in 1 ml of dimethyl sulphoxide; lower concentrations are prepared by dilution with distilled water.
[…] After the filter disks have dried, 25 test organisms are transferred to the Petri dishes and covered.
The activity of the active compound preparation is determined after 1, 3, 5, 24 and 48 hours. 100% means that all the flies were killed; 0% means that none of the flies was killed.

Lucilia cuprina larvae = experiment: Blowfly larvae test/development inhibition activity (Example I); format: in vivo; details: 100% = no flies hatched
Experimental: Blowfly Larvae Test/Development Inhibition Activity
as §2
About 20 Lucilia cuprina larvae are introduced into a test tube containing 1 cm^3 of horse meat and 0.5 ml of the test preparation of active compound. The efficacy of the active compound preparation is determined after 24 and 48 hours. The test tubes are transferred to beakers whose bases are covered with sand. After 2 more days, the test tubes are removed and the pupae are counted.
The activity of the active compound preparation is assessed in accordance with the number of flies which have hatched following 1.5 times the development period of an untreated control. 100% means that no flies have hatched; 0% means that all of the flies hatched normally.

[3] = tested on: caterpillars of the army worm (Spodoptera frugiperda); experiment: Spodoptera frugiperda test (Example E); format: in vivo; details: 1000 ppm, after 7 days, cabbage leaves dipped
Experimental: as §1, with “Spodoptera frugiperda” for “Phaedon larvae”, “caterpillars” for “larvae”, “army worm (Spodoptera frugiperda)” for “mustard beetle (Phaedon cochleariae)”, “caterpillars” for “beetle larvae”

[4] = Concentration 4 μg fly, reading time not given
[5] = Concentration 20 μg fly, reading time not given
[6] = Concentration 100 μg fly, reading time not stated (1, 3, 5, 24 and 48 hours in method)

N#Cc1cccc(C(=O)C2CCOC2=O)c1 (stereo not drawn)
logP (logP (pH 2)): 1.48

O=C(Nc1ccc(Cl)cc1)N1CCC(n2cc(Cl)cn2)C(c2cccc(C(F)(F)F)c2)=N1 (stereo not drawn) [Example 2]
kill [1]: 100% | % Activity/Kill [2, 4]: 0% | % Activity/Kill [2, 5]: 30% | % Activity/Kill [2, 6]: 95% | % Activity/Kill (Lucilia cuprina larvae; Concentration 4 ppm): 0% | % Activity/Kill (Lucilia cuprina larvae; Concentration 20 ppm): 100% | % Activity/Kill (Lucilia cuprina larvae; Concentration 100 ppm): 100% | logP (pH 2)/ m.p. [° C.] (logP part): 4.60/199 | kill [3]: 100%

O=C(Nc1ccc(OC(F)(F)F)cc1)N1CCC(n2cc(Cl)cn2)C(c2cccc(C(F)(F)F)c2)=N1 (stereo not drawn) [Example 3]
kill [1]: 100% | % Activity/Kill [2, 4]: 0% | % Activity/Kill [2, 5]: 50% | % Activity/Kill [2, 6]: 95% | % Activity/Kill (Lucilia cuprina larvae; Concentration 4 ppm): 0% | % Activity/Kill (Lucilia cuprina larvae; Concentration 20 ppm): 100% | % Activity/Kill (Lucilia cuprina larvae; Concentration 100 ppm): 100% | logP (pH 2)/ m.p. [° C.] (logP part): 4.83/192 | kill [3]: 100%

O=C(Nc1ccc(C(F)(F)F)cc1)N1CCC(n2cc(Cl)cn2)C(c2cccc(F)c2)=N1 (stereo not drawn) [Example 4]
kill [1]: 100% | logP (pH 2)/ m.p. [° C.] (logP part): 4.37/194 | kill [3]: 100%

O=C(Nc1ccc(Cl)cc1)N1CCC(n2cc(Cl)cn2)C(c2cccc(F)c2)=N1 (stereo not drawn) [Example 5]
kill [1]: 100% | % Activity/Kill (Lucilia cuprina larvae; Concentration 20 ppm): 0% | % Activity/Kill (Lucilia cuprina larvae; Concentration 100 ppm): 100% | logP (pH 2)/ m.p. [° C.] (logP part): 4.18/213 | kill [3]: 100%

O=C(Nc1ccc(OC(F)(F)F)cc1)N1CCC(n2cc(Cl)cn2)C(c2cccc(F)c2)=N1 (stereo not drawn) [Example 6]
kill [1]: 100% | % Activity/Kill [2, 4]: 0% | % Activity/Kill [2, 5]: 50% | % Activity/Kill [2, 6]: 99% | % Activity/Kill (Lucilia cuprina larvae; Concentration 20 ppm): 0% | % Activity/Kill (Lucilia cuprina larvae; Concentration 100 ppm): 100% | logP (pH 2)/ m.p. [° C.] (logP part): 4.43/148 | kill [3]: 100%

O=C(Nc1ccc(OC(F)(F)F)cc1)N1CCC(n2cc(Cl)cn2)C(c2cccc(Cl)c2)=N1 (stereo not drawn) [Example 7]
kill [1]: 100% | % Activity/Kill [2, 4]: 0% | % Activity/Kill [2, 5]: 50% | % Activity/Kill [2, 6]: 99% | % Activity/Kill (Lucilia cuprina larvae; Concentration 4 ppm): 0% | % Activity/Kill (Lucilia cuprina larvae; Concentration 20 ppm): 100% | % Activity/Kill (Lucilia cuprina larvae; Concentration 100 ppm): 100% | logP (pH 2)/ m.p. [° C.] (logP part): 4.73/181 | kill [3]: 100%

O=C(Nc1ccc(Cl)cc1)N1CCC(n2cc(Cl)cn2)C(c2cccc(Cl)c2)=N1 (stereo not drawn) [Example 8]
kill [1]: 100% | logP (pH 2)/ m.p. [° C.] (logP part): 4.49/203 | kill [3]: 100%

O=C(Nc1ccc(C(F)(F)F)cc1)N1CCC(n2cc(Cl)cn2)C(c2cccc(Cl)c2)=N1 (stereo not drawn) [Example 9]
kill [1]: 100% | % Activity/Kill [2, 4]: 0% | % Activity/Kill [2, 5]: 85% | % Activity/Kill [2, 6]: 95% | % Activity/Kill (Lucilia cuprina larvae; Concentration 20 ppm): 0% | % Activity/Kill (Lucilia cuprina larvae; Concentration 100 ppm): 100% | logP (pH 2)/ m.p. [° C.] (logP part): 4.69/199 | kill [3]: 100%

O=C(Nc1ccc(Cl)cc1)N1CCC(n2cc(Cl)cn2)C(c2cccc(OC(F)(F)F)c2)=N1 (stereo not drawn) [Example 10]
kill [1]: 100% | logP (pH 2)/ m.p. [° C.] (logP part): 4.73/158 | kill [3]: 100%

O=C(Nc1ccc(Cl)cc1)N1CCC(n2cc(Cl)cn2)C(c2cccc(Br)c2)=N1 (stereo not drawn) [Example 11]
kill [1]: 100% | logP (pH 2)/ m.p. [° C.] (logP part): 4.58/198 | kill [3]: 100%

O=C(Nc1ccc(OC(F)(F)F)cc1)N1CCC(n2cc(Cl)cn2)C(c2cccc(Br)c2)=N1 (stereo not drawn) [Example 12]
kill [1]: 100% | logP (pH 2)/ m.p. [° C.] (logP part): 4.82/197 | kill [3]: 100%

N#Cc1cccc(C2=NN(C(=O)Nc3ccc(C(F)(F)F)cc3)CCC2n2cc(Cl)cn2)c1 (stereo not drawn) [Example 16]
kill [1]: 100% | logP (pH 2)/ m.p. [° C.] (logP part): 4.03/229 | kill [3]: 100%

N#Cc1cnn(C2CCN(C(=O)Nc3ccc(Cl)cc3)N=C2c2cccc(Cl)c2)c1 (stereo not drawn) [Example 18]
logP (pH 2)/ m.p. [° C.] (logP part): 3.90/228

N#Cc1cnn(C2CCN(C(=O)Nc3ccc(OC(F)(F)F)cc3)N=C2c2cccc(Cl)c2)c1 (stereo not drawn) [Example 19]
logP (pH 2)/ m.p. [° C.] (logP part): 4.15/186

N#Cc1ccc(NC(=O)N2CCC(n3cc(Cl)cn3)C(c3cccc(Cl)c3)=N2)cc1 (stereo not drawn) [Example 20]
logP (pH 2)/ m.p. [° C.] (logP part): 3.77

N#Cc1cnn(C2CCN(C(=O)Nc3ccc(SC(F)(F)F)cc3)N=C2c2cccc(Cl)c2)c1 (stereo not drawn) [Example 21]
logP (pH 2)/ m.p. [° C.] (logP part): 4.53/194

N#Cc1cnn(C2CCN(C(=O)Nc3ccc(Cl)cc3)N=C2c2cccc(Br)c2)c1 (stereo not drawn) [Example 22]
logP (pH 2)/ m.p. [° C.] (logP part): 3.96/213

O=C(Nc1ccc(SC(F)(F)F)cc1)N1CCC(n2cc(Cl)cn2)C(c2cccc(C(F)(F)F)c2)=N1 (stereo not drawn) [Example 23]
% Activity/Kill [2, 5]: 0% | % Activity/Kill [2, 6]: 90% | % Activity/Kill (Lucilia cuprina larvae; Concentration 20 ppm): 0% | % Activity/Kill (Lucilia cuprina larvae; Concentration 100 ppm): 100% | logP (pH 2)/ m.p. [° C.] (logP part): 5.21/188

N#Cc1cnn(C2CCN(C(=O)Nc3ccc(SC(F)(F)F)cc3)N=C2c2cccc(Br)c2)c1 (stereo not drawn) [Example 24]
logP (pH 2)/ m.p. [° C.] (logP part): 4.64/206

N#Cc1cnn(C2CCN(C(=O)Nc3ccc(OC(F)(F)F)cc3)N=C2c2cccc(Br)c2)c1 (stereo not drawn) [Example 25]
logP (pH 2)/ m.p. [° C.] (logP part): 4.24/192

N#Cc1cccc(C2=NN(C(=O)Nc3ccc(SC(F)(F)F)cc3)CCC2n2cc(C#N)cn2)c1 (stereo not drawn) [Example 26]
logP (pH 2)/ m.p. [° C.] (logP part): 3.94/242

N#Cc1cnn(C2CCN(C(=O)Nc3ccc(C(F)(F)F)cc3)N=C2c2cccc(Br)c2)c1 (stereo not drawn) [Example 27]
logP (pH 2)/ m.p. [° C.] (logP part): 4.18/244

N#Cc1cnn(C2CCN(C(=O)Nc3ccc(Br)cc3)N=C2c2cccc(Cl)c2)c1 (stereo not drawn) [Example 28]
logP (pH 2)/ m.p. [° C.] (logP part): 4.03

N#Cc1cccc(C2=NN(C(=O)Nc3ccc(OC(F)(F)F)cc3)CCC2n2cc(C#N)cn2)c1 (stereo not drawn) [Example 29]
logP (pH 2)/ m.p. [° C.] (logP part): 3.62/239

N#Cc1cccc(C(=O)C(Br)CCCl)c1 (stereo not drawn) [Example V-1, 3′-cyano-2-bromo-4-chlorobutyrophenone]
logP (logP (pH 2)): 3.09

O=C(c1cccc(F)c1)C(Br)CCCl (stereo not drawn) [Example V-2]
logP (pH 2): 3.47

O=C(c1cccc(OC(F)(F)F)c1)C(Br)CCCl (stereo not drawn) [Example V-3]
logP (pH 2): 4.19

O=C(c1cccc(Br)c1)C(Br)CCCl (stereo not drawn) [Example V-4]
logP (pH 2): 4.02

FC(F)(F)c1cccc(C2=NNCCC2n2cc(Cl)cn2)c1 (stereo not drawn) [II-2]
logP (pH 2): 3.09

Fc1cccc(C2=NNCCC2n2cc(Cl)cn2)c1 (stereo not drawn) [II-3]
logP (pH 2): 2.59

Clc1cccc(C2=NNCCC2n2cc(Cl)cn2)c1 (stereo not drawn) [II-4]
logP (pH 2): 2.93

FC(F)(F)Oc1cccc(C2=NNCCC2n2cc(Cl)cn2)c1 (stereo not drawn) [II-5]
logP (pH 2): 3.32

Clc1cnn(C2CCNN=C2c2cccc(Br)c2)c1 (stereo not drawn) [II-6]
logP (pH 2): 3.03

N#Cc1cnn(C2CCNN=C2c2cccc(Cl)c2)c1 (stereo not drawn) [II-7]
logP (pH 2): 2.40

N#Cc1cnn(C2CCNN=C2c2cccc(Br)c2)c1 (stereo not drawn) [II-8]
logP (pH 2): 2.49

N#Cc1cccc(C2=NNCCC2n2cc(C#N)cn2)c1 (stereo not drawn) [II-9]
logP (pH 2): 1.83

N#Cc1cccc(C(=O)C(CCCl)n2cc(Cl)cn2)c1 (stereo not drawn) [IV-1, 3′-cyano-2-(4-chloropyrazol-1-yl)-4-chlorobutyrophenone]
logP (logP (pH 2)): 2.95

O=C(c1cccc(C(F)(F)F)c1)C(CCCl)n1cc(Cl)cn1 (stereo not drawn) [IV-2]
logP (pH 2): 3.84

O=C(c1cccc(F)c1)C(CCCl)n1cc(Cl)cn1 (stereo not drawn) [IV-3]
logP (pH 2): 3.31

O=C(c1cccc(Cl)c1)C(CCCl)n1cc(Cl)cn1 (stereo not drawn) [IV-4]
logP (pH 2): 3.68

O=C(c1cccc(OC(F)(F)F)c1)C(CCCl)n1cc(Cl)cn1 (stereo not drawn) [IV-5]
logP (pH 2): 3.99

O=C(c1cccc(Br)c1)C(CCCl)n1cc(Cl)cn1 (stereo not drawn) [IV-6]
logP (pH 2): 3.78

N#Cc1cnn(C(CCCl)C(=O)c2cccc(Cl)c2)c1 (stereo not drawn) [IV-7]
logP (pH 2): 3.06

N#Cc1cnn(C(CCCl)C(=O)c2cccc(Br)c2)c1 (stereo not drawn) [IV-8]
logP (pH 2): 3.13

N#Cc1cccc(C(=O)C(CCCl)n2cc(C#N)cn2)c1 (stereo not drawn) [IV-9]
logP (pH 2): 2.41

N#Cc1cccc(C(=O)CCCCl)c1 [VI-1, 3′-cyano-4-chlorobutyrophenone]
logP (logP (pH 2)): 2.49

O=C(CCCCl)c1cccc(OC(F)(F)F)c1 [VI-2]
logP (pH 2): 3.71

O=C(CCCCl)c1cccc(Br)c1 [VI-3]
logP (pH 2): 3.50

O=C1OCCC1C(=O)c1cccc(C(F)(F)F)c1 (stereo not drawn) [VIIa-2]
logP (pH 2) (logP (pH 2)): 2.42

O=C1OCCC1C(=O)c1cccc(F)c1 (stereo not drawn) [VIIa-3]
logP (pH 2) (logP (pH 2)): 1.77

O=C1OCCC1C(=O)c1cccc(OC(F)(F)F)c1 (stereo not drawn) [VIIa-4]
logP (pH 2): 2.59

O=C1OCCC1C(=O)c1cccc(Br)c1 (stereo not drawn) [Vlla-5]
logP (pH 2): 2.22
